Data reported in PubChem BioAssay (NCI).
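All cell lines were grown in 96-well plates and treated with compound for 48 hours. GI50 marks 50% less growth. TGI denotes the concentration required for complete inhibition of growth.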

Assays:
Assay in all cases: NCI tumour cell line growth inhibition, 48 h
786-0 renal = system: 786-0 renal
A498 renal = system: A498 renal
A549 NSCLC = system: A549 NSCLC
ACHN renal = system: ACHN renal
BT-549 breast = system: BT-549 breast
CAKI-1 renal = system: CAKI-1 renal
CCRF-CEM leukemia = system: CCRF-CEM leukemia
COLO 205 colon = system: COLO 205 colon
DU-145 prostate = system: DU-145 prostate
HCC-2998 colon = system: HCC-2998 colon
HCT-116 colon = system: HCT-116 colon
HCT-15 colon = system: HCT-15 colon
HL-60(TB) leukemia = system: HL-60(TB) leukemia
HOP-62 NSCLC = system: HOP-62 NSCLC
HOP-92 NSCLC = system: HOP-92 NSCLC
HS 578T breast = system: HS 578T breast
HT29 colon = system: HT29 colon
IGROV1 ovarian = system: IGROV1 ovarian
K-562 leukemia = system: K-562 leukemia
KM12 colon = system: KM12 colon
LOX IMVI melanoma = system: LOX IMVI melanoma
M14 melanoma = system: M14 melanoma
MALME-3M melanoma = system: MALME-3M melanoma
MCF7 breast = system: MCF7 breast
MDA-MB-231 breast = system: MDA-MB-231 breast
MDA-MB-435 = system: MDA-MB-435
MOLT-4 leukemia = system: MOLT-4 leukemia
NCI-H226 lung = system: NCI-H226 lung
NCI-H23 lung = system: NCI-H23 lung
NCI-H460 lung = system: NCI-H460 lung
NCI-H522 lung = system: NCI-H522 lung
NCI/ADR-RES ovarian = system: NCI/ADR-RES ovarian
OVCAR-3 ovarian = system: OVCAR-3 ovarian
OVCAR-4 ovarian = system: OVCAR-4 ovarian
OVCAR-5 ovarian = system: OVCAR-5 ovarian
OVCAR-8 ovarian = system: OVCAR-8 ovarian
PC-3 prostate = system: PC-3 prostate
RPMI-8226 leukemia = system: RPMI-8226 leukemia
RXF 393 renal = system: RXF 393 renal
SF-268 CNS = system: SF-268 CNS
SF-295 CNS = system: SF-295 CNS
SF-539 CNS = system: SF-539 CNS
SK-MEL-2 melanoma = system: SK-MEL-2 melanoma
SK-MEL-28 melanoma = system: SK-MEL-28 melanoma
SK-MEL-5 melanoma = system: SK-MEL-5 melanoma
SK-OV-3 ovarian = system: SK-OV-3 ovarian
SN12C renal = system: SN12C renal
SNB-19 CNS = system: SNB-19 CNS
SNB-75 CNS = system: SNB-75 CNS
SR leukemia = system: SR leukemia
SW-620 colon = system: SW-620 colon
T-47D breast = system: T-47D breast
TK-10 renal = system: TK-10 renal
U251 CNS = system: U251 CNS
UACC-257 melanoma = system: UACC-257 melanoma
UACC-62 melanoma = system: UACC-62 melanoma
UO-31 renal = system: UO-31 renal

O=C(Nc1cccc(-n2cc(-c3ccncc3)c(-c3ccc(Cl)c(O)c3)n2)c1)Nc1cc(C(F)(F)F)cc(C(F)(F)F)c1
GI50 (786-0 renal): 1020 nM | TGI (786-0 renal): 2350 nM | GI50 (A498 renal): 595 nM | TGI (A498 renal): 2300 nM | GI50 (A549 NSCLC): 313 nM | TGI (A549 NSCLC): 1380 nM | GI50 (ACHN renal): 669 nM | TGI (ACHN renal): 4200 nM | GI50 (BT-549 breast): 1050 nM | TGI (BT-549 breast): 2050 nM | GI50 (CAKI-1 renal): 867 nM | TGI (CAKI-1 renal): 2880 nM | GI50 (CCRF-CEM leukemia): 789 nM | TGI (CCRF-CEM leukemia): 6780 nM | GI50 (COLO 205 colon): 896 nM | TGI (COLO 205 colon): 1710 nM | GI50 (DU-145 prostate): 963 nM | TGI (DU-145 prostate): 2940 nM | GI50 (HCC-2998 colon): 977 nM | TGI (HCC-2998 colon): 2040 nM | GI50 (HCT-116 colon): 487 nM | TGI (HCT-116 colon): 1240 nM | GI50 (HCT-15 colon): 591 nM | TGI (HCT-15 colon): 3010 nM | GI50 (HL-60(TB) leukemia): 1130 nM | TGI (HL-60(TB) leukemia): 6630 nM | GI50 (HOP-62 NSCLC): 902 nM | TGI (HOP-62 NSCLC): 1810 nM | GI50 (HOP-92 NSCLC): 196 nM | TGI (HOP-92 NSCLC): 1150 nM | GI50 (HS 578T breast): 1200 nM | TGI (HS 578T breast): 4010 nM | GI50 (HT29 colon): 711 nM | TGI (HT29 colon): 1640 nM | GI50 (IGROV1 ovarian): 795 nM | TGI (IGROV1 ovarian): 2550 nM | GI50 (K-562 leukemia): 520 nM | TGI (K-562 leukemia): 2980 nM | GI50 (KM12 colon): 511 nM | TGI (KM12 colon): 1350 nM | GI50 (LOX IMVI melanoma): 712 nM | TGI (LOX IMVI melanoma): 1400 nM | GI50 (M14 melanoma): 692 nM | TGI (M14 melanoma): 1900 nM | GI50 (MALME-3M melanoma): 831 nM | TGI (MALME-3M melanoma): 2240 nM | GI50 (MCF7 breast): 666 nM | TGI (MCF7 breast): 4620 nM | GI50 (MDA-MB-231 breast): 768 nM | TGI (MDA-MB-231 breast): 1660 nM | GI50 (MDA-MB-435): 829 nM | TGI (MDA-MB-435): 2070 nM | GI50 (MOLT-4 leukemia): 1150 nM | TGI (MOLT-4 leukemia): 4360 nM | GI50 (NCI-H226 lung): 1200 nM | TGI (NCI-H226 lung): 5140 nM | GI50 (NCI-H23 lung): 998 nM | TGI (NCI-H23 lung): 2860 nM | GI50 (NCI-H460 lung): 391 nM | TGI (NCI-H460 lung): 1360 nM | GI50 (NCI-H522 lung): 707 nM | TGI (NCI-H522 lung): 2100 nM | GI50 (NCI/ADR-RES ovarian): 1230 nM | TGI (NCI/ADR-RES ovarian): 5670 nM | GI50 (OVCAR-3 ovarian): 345 nM | TGI (OVCAR-3 ovarian): 1110 nM | GI50 (OVCAR-4 ovarian): 795 nM | TGI (OVCAR-4 ovarian): 3280 nM | GI50 (OVCAR-5 ovarian): 846 nM | TGI (OVCAR-5 ovarian): 1880 nM | GI50 (OVCAR-8 ovarian): 563 nM | TGI (OVCAR-8 ovarian): 5920 nM | GI50 (PC-3 prostate): 261 nM | TGI (PC-3 prostate): 2240 nM | GI50 (RPMI-8226 leukemia): 434 nM | TGI (RPMI-8226 leukemia): 10600 nM | GI50 (RXF 393 renal): 935 nM | TGI (RXF 393 renal): 2210 nM | GI50 (SF-268 CNS): 846 nM | TGI (SF-268 CNS): 2290 nM | GI50 (SF-295 CNS): 618 nM | TGI (SF-295 CNS): 1650 nM | GI50 (SF-539 CNS): 777 nM | TGI (SF-539 CNS): 1530 nM | GI50 (SK-MEL-2 melanoma): 999 nM | TGI (SK-MEL-2 melanoma): 2180 nM | GI50 (SK-MEL-28 melanoma): 807 nM | TGI (SK-MEL-28 melanoma): 1610 nM | GI50 (SK-MEL-5 melanoma): 604 nM | TGI (SK-MEL-5 melanoma): 1260 nM | GI50 (SK-OV-3 ovarian): 1180 nM | TGI (SK-OV-3 ovarian): 2830 nM | GI50 (SN12C renal): 852 nM | TGI (SN12C renal): 3140 nM | GI50 (SNB-19 CNS): 979 nM | TGI (SNB-19 CNS): 6650 nM | GI50 (SNB-75 CNS): 896 nM | TGI (SNB-75 CNS): 2300 nM | GI50 (SR leukemia): 876 nM | TGI (SR leukemia): 3220 nM | GI50 (SW-620 colon): 1180 nM | TGI (SW-620 colon): 3730 nM | GI50 (T-47D breast): 1550 nM | TGI (T-47D breast): 8930 nM | GI50 (TK-10 renal): 843 nM | TGI (TK-10 renal): 2750 nM | GI50 (U251 CNS): 484 nM | TGI (U251 CNS): 1150 nM | GI50 (UACC-257 melanoma): 890 nM | TGI (UACC-257 melanoma): 2240 nM | GI50 (UACC-62 melanoma): 766 nM | TGI (UACC-62 melanoma): 1960 nM | GI50 (UO-31 renal): 676 nM | TGI (UO-31 renal): 1770 nM
